Assay results as given in patent publication US20230330093A1, “APPLICATION OF NITROGEN-CONTAINING SATURATED HETEROCYCLIC COMPOUND” (SHANGHAI PHARMACEUTICALS HOLDING CO., LTD., priority 2020, published 2023).
Several values for one entry are separate records, joined by “and”; a condition that tells them apart may be missing. Equal entries are not always repeated.

Tested on: rhesus monkeys with spontaneous chronic kidney disease
Assay: Effect on glomerular filtration rate eGFRcreat-cys, 8-week administration
Assay type: in vivo, Macaca mulatta (Rhesus Macaque)
Method: CKD-EPI rating […]-G3b, glomerular filtration rate eGFR: 30 59 ml/min/1.73 m^2; or moderate to severe increase in proteinuria (A2-A3): urine albumin/creatinine ratio (UACR)>15 mg/g-350 mg/g (4-6 hour urine collection), vs. age-matched control group 3±2 mg/g. In the trial, animals were brought in three stages. […] Glomerular filtration rate […]: creatinine (Cr-P), urea nitrogen (BUN) and cystatin (CysC) were detected, and the eGFR value was obtained by calculation. It was performed once before the administration and once every two weeks after the administration. […] ELISA kit was used for NT-proBNP test. [table] Selected […] in each group: 30 59 ml/min/1.73 m^2. The changes in the glomerular filtration rate of W8 and baseline were analyzed.

COC(=O)NCCCn1nc([C@@H](C)N(C(=O)[C@H]2CNCCO2)C2CC2)c2ccc(C)nc21.O=C(O)C[C@H](O)C(=O)O [malate of compound of Formula I]
eGFRcreat-cy, Change value (2 mg/kg oral once a day, 2 weeks vs baseline, per animal + Mean ± SD, mean): −1 ± 3 ml/min/1.73 m^2 | eGFRcreat-cy, Change value (2 mg/kg oral once a day, 4 weeks vs baseline, per animal + Mean ± SD): 7 ml/min/1.73 m^2 and −5 ml/min/1.73 m^2 and 1 ml/min/1.73 m^2 (2×) and 10 ml/min/1.73 m^2 | eGFRcreat-cy, Change value (2 mg/kg oral once a day, 4 weeks vs baseline, per animal + Mean ± SD, mean): 3 ± 6 ml/min/1.73 m^2 | eGFRcreat-cy, Change value (2 mg/kg oral once a day, 6 weeks vs baseline, per animal + Mean ± SD): 4 ml/min/1.73 m^2 and −1 ml/min/1.73 m^2 and 0 ml/min/1.73 m^2 and 5 ml/min/1.73 m^2 (2×) | eGFRcreat-cy, Change value (2 mg/kg oral once a day, 6 weeks vs baseline, per animal + Mean ± SD, mean): 3 ± 3 ml/min/1.73 m^2 | eGFRcreat-cy, Change value (2 mg/kg oral once a day, 8 weeks vs baseline, per animal + Mean ± SD (p<0.05 vs placebo)): 3±3 ml/min/1.73 m^2 and 5 ml/min/1.73 m^2 and 0 ml/min/1.73 m^2 and 2 ml/min/1.73 m^2 and 6 ml/min/1.73 m^2 and 1 ml/min/1.73 m^2 | eGFRcreat-cy, Change value (2 mg/kg oral once a day, Baseline, per animal + Mean ± SD): 0 ml/min/1.73 m^2 | eGFRcreat-cy, Change value (2 mg/kg oral once a day, Baseline, per animal + Mean ± SD, mean): 0 ± 0 ml/min/1.73 m^2 | eGFRcreat-cys (2 mg/kg qd (n = 5), 2 weeks): 58 ml/min/1.73 m^2 and 47 ml/min/1.73 m^2 and 46 ml/min/1.73 m^2 and 43 ml/min/1.73 m^2 and 57 ml/min/1.73 m^2 | eGFRcreat-cys (2 mg/kg qd (n = 5), 2 weeks, group mean): 50 ± 7 ml/min/1.73 m^2 | eGFRcreat-cys (2 mg/kg qd (n = 5), 4 weeks): 61 ml/min/1.73 m^2 and 45 ml/min/1.73 m^2 and 50 ml/min/1.73 m^2 and 56 ml/min/1.73 m^2 and 59 ml/min/1.73 m^2 | eGFRcreat-cys (2 mg/kg qd (n = 5), 4 weeks, group mean): 54 ± 7 ml/min/1.73 m^2 | eGFRcreat-cys (2 mg/kg qd (n = 5), 6 weeks): 58 ml/min/1.73 m^2 and 48 ml/min/1.73 m^2 and 51 ml/min/1.73 m^2 and 62 ml/min/1.73 m^2 | eGFRcreat-cys (2 mg/kg qd (n = 5), 6 weeks, group mean): 54 ± 6 ml/min/1.73 m^2 | eGFRcreat-cys (2 mg/kg qd (n = 5), Baseline, single animals and Mean ± SD): 54 ml/min/1.73 m^2 and 50 ml/min/1.73 m^2 and 48 ml/min/1.73 m^2 and 46 ml/min/1.73 m^2 and 58 ml/min/1.73 m^2 | eGFRcreat-cys (2 mg/kg qd (n = 5), Baseline, single animals and Mean ± SD, group mean): 51 ± 5 ml/min/1.73 m^2 | eGFRcreat-cy, Change value (5 mg/kg oral once a day, 2 weeks vs baseline, per animal + Mean ± SD): 4 ml/min/1.73 m^2 and 9 ml/min/1.73 m^2 and 11 ml/min/1.73 m^2 and −4 ml/min/1.73 m^2 and 1 ml/min/1.73 m^2 and 17 ml/min/1.73 m^2 | eGFRcreat-cy, Change value (5 mg/kg oral once a day, 2 weeks vs baseline, per animal + Mean ± SD, mean): 5 ± 9 ml/min/1.73 m^2 | eGFRcreat-cy, Change value (5 mg/kg oral once a day, 4 weeks vs baseline, per animal + Mean ± SD): −3 ml/min/1.73 m^2 and 4 ml/min/1.73 m^2 and 6 ml/min/1.73 m^2 and 2 ml/min/1.73 m^2 and 12 ml/min/1.73 m^2 and 11 ml/min/1.73 m^2 | eGFRcreat-cy, Change value (5 mg/kg oral once a day, 4 weeks vs baseline, per animal + Mean ± SD, mean): 5 ± 6 ml/min/1.73 m^2 | eGFRcreat-cy, Change value (5 mg/kg oral once a day, 6 weeks vs baseline, per animal + Mean ± SD): −1 ml/min/1.73 m^2 (2×) and 6 ml/min/1.73 m^2 and −2 ml/min/1.73 m^2 and 11 ml/min/1.73 m^2 (2×) | eGFRcreat-cy, Change value (5 mg/kg oral once a day, 6 weeks vs baseline, per animal + Mean ± SD, mean): 4 ± 6 ml/min/1.73 m^2 | eGFRcreat-cy, Change value (5 mg/kg oral once a day, 8 weeks vs baseline, per animal + Mean ± SD (p<0.05 vs placebo)): 6±6 ml/min/1.73 m^2 and 3 ml/min/1.73 m^2 and 6 ml/min/1.73 m^2 and 4 ml/min/1.73 m^2 and 2 ml/min/1.73 m^2 and 8 ml/min/1.73 m^2 and 17 ml/min/1.73 m^2 | eGFRcreat-cy, Change value (5 mg/kg oral once a day, Baseline, per animal + Mean ± SD): 0 ml/min/1.73 m^2 | eGFRcreat-cy, Change value (5 mg/kg oral once a day, Baseline, per animal + Mean ± SD, mean): 0 ± 0 ml/min/1.73 m^2 | eGFRcreat-cys (5 mg/kg qd (n = 6), 2 weeks): 51 ml/min/1.73 m^2 and 57 ml/min/1.73 m^2 and 62 ml/min/1.73 m^2 and 37 ml/min/1.73 m^2 and 54 ml/min/1.73 m^2 and 61 ml/min/1.73 m^2 | eGFRcreat-cys (5 mg/kg qd (n = 6), 2 weeks, group mean): 54 ± 9 ml/min/1.73 m^2 | eGFRcreat-cys (5 mg/kg qd (n = 6), 6 weeks): 53 ml/min/1.73 m^2 and 54 ml/min/1.73 m^2 and 49 ml/min/1.73 m^2 and 40 ml/min/1.73 m^2 and 64 ml/min/1.73 m^2 | eGFRcreat-cys (5 mg/kg qd (n = 6), 6 weeks, group mean): 53 ± 8 ml/min/1.73 m^2 | eGFRcreat-cys (5 mg/kg qd (n = 6), 8 weeks): 57 ml/min/1.73 m^2 and 53 ml/min/1.73 m^2 and 55 ml/min/1.73 m^2 and 43 ml/min/1.73 m^2 and 61 ml/min/1.73 m^2 and 60 ml/min/1.73 m^2 | eGFRcreat-cys (5 mg/kg qd (n = 6), 8 weeks, group mean): 55 ± 7 ml/min/1.73 m^2 | eGFRcreat-cys (5 mg/kg qd (n = 6), Baseline, single animals and Mean ± SD): 55 ml/min/1.73 m^2 and 48 ml/min/1.73 m^2 and 51 ml/min/1.73 m^2 and 41 ml/min/1.73 m^2 and 53 ml/min/1.73 m^2 and 43 ml/min/1.73 m^2 | eGFRcreat-cys (5 mg/kg qd (n = 6), Baseline, single animals and Mean ± SD, group mean): 49 ± 5 ml/min/1.73 m^2 | glomerular filtration rate eGFRcreat-cys improvement (2-5 mg/kg qd for 8 weeks): can be significantly improved
